Results on two molecules are retold here after PMC11286754 (Nature Communications, 2024).

For test [1], the target named is T1, SMTA (transaminase from Shimia marina) (Shimia marina, UniProt A0A0P1EM06). The test is classed as binding.
The target of test [2] is T1, SMTA (transaminase from Shimia marina). The test is classed as binding. The source holds these as a separate data set.

T1 sequence (A0A0P1EM06 1-462 limits assumed): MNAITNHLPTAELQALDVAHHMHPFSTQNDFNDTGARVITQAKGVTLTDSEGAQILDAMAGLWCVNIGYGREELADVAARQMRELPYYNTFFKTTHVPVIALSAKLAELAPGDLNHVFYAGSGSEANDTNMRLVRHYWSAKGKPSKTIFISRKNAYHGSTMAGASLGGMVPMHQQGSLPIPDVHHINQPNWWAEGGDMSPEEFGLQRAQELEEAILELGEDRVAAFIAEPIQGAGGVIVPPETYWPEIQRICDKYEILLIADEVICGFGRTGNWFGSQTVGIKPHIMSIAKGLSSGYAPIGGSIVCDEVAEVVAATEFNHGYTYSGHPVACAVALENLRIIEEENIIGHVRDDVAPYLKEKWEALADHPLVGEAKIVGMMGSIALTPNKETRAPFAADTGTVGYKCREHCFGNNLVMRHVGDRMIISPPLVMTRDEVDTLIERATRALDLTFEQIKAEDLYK

As for `Cc1ncc(COP(=O)(O)O)c(C=O)c1O` [PLP, pyridoxal-5′-phosphate], the “X-ray crystal structure, 2.14 A” value in test [1] is “The apparent electron density indicated a Schiff base between PLP and the catalytic lysine K291”.

Turning to `Cc1ncc(COP(=O)(O)O)c(CN)c1O` [PMP], the cofactor release assay result in test [2] was “binding affinity of both PLP and PMP compared to that of wild-type SMTA”.
